From patent EP0590919A1, “Therapeutic agents for parkinson's disease” (KYOWA HAKKO KOGYO CO., LTD., priority 1992, dated 1994)
Read-outs that look alike come from different tables or passages of the source.

Key:
[1] = system: dd-strain male mice; assay: Acute toxicity test (minimum lethal dose, oral); assay type: in vivo; details: oral administration, three mice per group, mortality seven days after administration
Protocol: Test compounds were orally administered to groups of dd-strain male mice weighing 20 ± 1 g, each group consisting of three mice. Seven days after the administration, minimum lethal dose (MLD) of each compound was determined by observing the mortality.

[2] = biological target: T1, A₁ receptor (Cavia porcellus, UniProt P47745); assay: Adenosine A₁ receptor binding test (³H-CHA binding); parameters: species or system guinea pig; details: for inhibition at 100 µM: 10⁻⁴M; for inhibition at 100 µM / inhibition at 10 µM: guinea pig cerebrum; for inhibition at 10 µM: 10⁻⁵M; for Ki: Cheng-Prusoff's equation
T1 construct: from tissue; host or cells: guinea pig cerebrum membrane preparation
T1 sequence (P47745 1-326): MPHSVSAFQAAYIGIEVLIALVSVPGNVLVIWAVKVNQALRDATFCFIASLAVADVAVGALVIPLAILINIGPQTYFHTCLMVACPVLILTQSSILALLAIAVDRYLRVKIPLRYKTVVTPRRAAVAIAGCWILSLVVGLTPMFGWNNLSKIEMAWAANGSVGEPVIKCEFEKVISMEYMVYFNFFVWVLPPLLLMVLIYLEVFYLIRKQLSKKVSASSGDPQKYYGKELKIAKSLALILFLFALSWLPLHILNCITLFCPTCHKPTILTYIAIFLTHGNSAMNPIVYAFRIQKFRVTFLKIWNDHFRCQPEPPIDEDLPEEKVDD
Protocol: Cerebrum of a guinea pig was suspended in ice-cooled 50 mM Tris hydroxymethyl aminomethane hydrochloride (Tris HCl) buffer (pH 7.7) by using Polytron homogenizer (manufactured by […] Co.). […] The suspension was centrifuged under the same conditions, and the final precipitate was suspended once again in 50 mM Tris HCl buffer to give a tissue concentration of 100 mg (wet weight)/ml. The tissue suspension was incubated at 37°C for 30 minutes in the presence of 0.02 unit/mg tissue of adenosine deaminase (manufactured by Sigma Co.). The tissue suspension was then centrifuged (50,000 x g, 10 minutes), and 50 mM Tris HCl buffer was added to the precipitate to adjust the concentration of tissue to 10 mg (wet weight)/ml. […] The mixture solution was allowed to stand at 25°C for 90 minutes and then rapidly filtered by suction through a glass fiber filter (GF/C manufactured by Whatman Co.). […] The radioactivity on the filter was determined with a liquid scintillation counter (manufactured by Packard Instrument Co.). […] The inhibition constant (Ki value) shown in the table was calculated by the Cheng-Prusoff's equation.

[3] = system: Haloperidol-Induced Catalepsy; assay: Effect on haloperidol-induced catalepsy; assay type: in vivo, mice; details: for ED50: Mus musculus, 1 h, ten mice at each dose, effective = catalepsy score 3 or less, Probit analysis, oral, read-out: ED₅₀; for Number of the Animals Showing Remission: of five mice, catalepsy score not more than 4 points; for Number of the Animals Showing Remission / Remission Rate (%) / Total Score: 10 mg/kg orally; for Remission Rate (%): rate of decrease in total score based on control group; for Total Score: total catalepsy score of five mice (25 points at the full), haloperidol 1.0 mg/kg i.p.
Protocol: Haloperidol (Janssen Pharmaceutica) suspended in 0.3% CMC was intraperitoneally administered to each mouse at a dose of 1.0 mg/kg. Test compounds were suspended in 0.3% CMC or in injectable distilled water (Otsuka Pharmaceutical Co., Ltd.) containing Tween 80. L-DOPA (Kyowa Hakko Kogyo Co., Ltd.) and benserazide hydrochloride (Kyowa Hakko Kogyo Co., Ltd.) were suspended in 0.3% CMC. One hour after the haloperidol administration, the test compound suspensions and the control suspension [injectable distilled water (Otsuka Pharmaceutical Co., Ltd.) containing Tween 80] containing no test compound were orally administered to separate groups of the mice (0.1 ml per 10 g of body weight). One hour after the administration of the test compound, the forelimbs of each mouse and subsequently the hindlimbs of the same mouse were placed on a 4.5 cm-high, 1.0 cm-wide bar and catalepsy was estimated. […] The catalepsy score and the standard of judgment are shown below. […] The number of the animals showing remission against catalepsy is the number of the mice for which the catalepsy score was not more than 4 points. […] The ED₅₀ values were calculated by Probit analysis.

[4] = biological target: T2, A₂ receptor (Rattus norvegicus, UniProt P30543); assay: Adenosine A₂ receptor binding test (³H-NECA binding); details: for inhibition at 0.1 µM / inhibition at 1 µM / inhibition at 10 µM / inhibition at 100 µM: read-out: Inhibition (%) A₂ Receptor; for Ratio (A₁/A₂): ratio of Ki values A₁/A₂
T2 construct: from tissue; host or cells: rat corpus striatum membrane preparation
T2 sequence (P30543 whole entry): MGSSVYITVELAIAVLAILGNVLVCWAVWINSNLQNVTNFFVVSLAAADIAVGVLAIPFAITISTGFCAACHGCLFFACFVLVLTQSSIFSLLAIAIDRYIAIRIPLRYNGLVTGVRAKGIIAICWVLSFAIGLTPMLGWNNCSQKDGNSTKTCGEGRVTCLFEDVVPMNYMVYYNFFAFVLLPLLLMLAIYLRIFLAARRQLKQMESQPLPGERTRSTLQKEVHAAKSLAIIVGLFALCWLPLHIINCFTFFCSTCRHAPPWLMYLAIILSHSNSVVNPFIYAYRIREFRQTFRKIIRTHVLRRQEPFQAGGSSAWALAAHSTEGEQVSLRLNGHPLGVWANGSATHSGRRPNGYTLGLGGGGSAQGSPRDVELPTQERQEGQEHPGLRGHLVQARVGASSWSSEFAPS
Protocol: The similar procedure as in the above-described adenosine A₁ receptor binding test was repeated using rat corpus striatum to obtain the final precipitate of the tissue thereof. The precipitate was suspended in 50 mM Tris HCl buffer containing 10 mM magnesium chloride and 0.02 unit/mg tissue of adenosine deaminase (manufactured by Sigma Co.) to give a tissue concentration of 5 mg (wet weight)/ml.
The mixture solution was allowed to stand at 25°C for 120 minutes and then treated in the same manner as in the adenosine A₁ receptor binding test to determine the radioactivity bound to the A₂ receptors.
The inhibition rate of the test compound against the binding of A₂ receptor (³H-NECA binding) was calculated by the following equation: [formula] [Notes] • 1.

CCn1c(=O)c2c(nc(/C=C/c3ccc4c(c3)OCO4)n2C)n(CC)c1=O [Compound 16, (E)-1,3-Diethyl-7-methyl-8-(3,4-methylenedioxystyryl)xanthine]
MLD [1]: > 300 mg/kg
inhibition at 100 µM [2]: 72%
inhibition at 10 µM [2]: 53%
ED50 [3]: 0.76 mg/kg
Number of the Animals Showing Remission [3]: 5
Remission Rate (%) [3]: 84%
Total Score [3]: 4
inhibition at 0.1 µM [4]: 80%
inhibition at 1 µM [4]: 96%
inhibition at 10 µM [4]: 88%
inhibition at 100 µM [4]: 93%
Ki ([4]; ³H-NECA binding): 6.1 nM

CCn1c(=O)c2[nH]c(/C=C/c3ccc(OC)c(C)c3C)nc2n(CC)c1=O [Compound 9, (E)-1,3-Diethyl-8-(4-methoxy-2,3-dimethylstyryl)xanthine]
MLD [1]: > 300 mg/kg
inhibition at 100 µM [2]: 26%
inhibition at 10 µM [2]: 14%
Ki [2]: > 100000 nM
Ratio (A₁/A₂) [4]: > 32,000
inhibition at 0.1 µM [4]: 79%
inhibition at 1 µM [4]: 84%
inhibition at 10 µM [4]: 73%
inhibition at 100 µM [4]: 86%
Ki ([4]; ³H-NECA binding): 3.1 nM

CCn1c(=O)c2c(nc(/C=C/c3ccc4c(c3)OCCO4)n2C)n(CC)c1=O [Compound 18, (E)-8-[2-(1,4-Benzodioxan-6-yl)vinyl]-1,3-diethyl-7-methylxanthine]
MLD [1]: > 300 mg/kg
inhibition at 100 µM [2]: 66%
inhibition at 10 µM [2]: 56%
ED50 [3]: 1.9 mg/kg
Number of the Animals Showing Remission [3]: 5
Remission Rate (%) [3]: 84%
Total Score [3]: 4
inhibition at 0.1 µM [4]: 84%
inhibition at 1 µM [4]: 90%
inhibition at 10 µM [4]: 104%
inhibition at 100 µM [4]: 98%
Ki ([4]; ³H-NECA binding): 1.5 nM

Cn1c(=O)c2[nH]c(/C=C/c3ccc4c(c3)OCO4)nc2n(C)c1=O [Compound 23, (E)-8-(3,4-Methylenedioxystyryl)theophylline]
MLD [1]: > 300 mg/kg
inhibition at 100 µM [2]: 38%
inhibition at 10 µM [2]: 32%
Ki [2]: > 100000 nM
inhibition at 100 µM ([4]; 10⁻⁴M, ³H-NECA binding, rat corpus striatum): 81%
inhibition at 10 µM ([4]; 10⁻⁵M, ³H-NECA binding, rat corpus striatum): 90%
inhibition at 1 µM ([4]; 10⁻⁶M, ³H-NECA binding, rat corpus striatum): 60%
inhibition at 0.1 µM ([4]; 10⁻⁷M, ³H-NECA binding, rat corpus striatum): 38%

COc1ccc(/C=C/c2nc3c([nH]2)c(=O)n(C)c(=O)n3C)c(C)c1C [Compound 21, (E)-8-(4-Methoxy-2,3-dimethylstyryl)theophylline]
MLD [1]: > 100 mg/kg
inhibition at 100 µM [2]: 40%
inhibition at 10 µM [2]: 36%
Ki [2]: > 100000 nM
Number of the Animals Showing Remission [3]: 4
Remission Rate (%) [3]: 24%
Total Score [3]: 19
inhibition at 0.1 µM [4]: 56%
inhibition at 1 µM [4]: 68%
inhibition at 10 µM [4]: 83%
inhibition at 100 µM [4]: 79%
Ki ([4]; ³H-NECA binding): 22 nM

CCn1c(=O)c2[nH]c(/C=C/c3ccc(OC)c(OC)c3)nc2n(CC)c1=O [Compound 1, (E)-8-(3,4-Dimethoxystyryl)-1,3-diethylxanthine]
MLD [1]: > 300 mg/kg
inhibition at 100 µM [2]: 86%
inhibition at 10 µM [2]: 84%
inhibition at 0.1 µM [4]: 53%
inhibition at 1 µM [4]: 86%
inhibition at 10 µM [4]: 98%
inhibition at 100 µM [4]: 100%
Ki ([4]; ³H-NECA binding): 23 nM

Cn1c(=O)c2c(nc(/C=C/c3ccc4c(c3)OCO4)n2C)n(C)c1=O [Compound 24, (E)-8-(3,4-Methylenedioxystyryl)caffeine]
MLD [1]: > 300 mg/kg
inhibition at 100 µM [2]: -25%
inhibition at 10 µM [2]: -4%
Ki [2]: > 100000 nM
Ratio (A₁/A₂) [4]: > 3,800
inhibition at 0.1 µM [4]: 62%
inhibition at 1 µM [4]: 57%
inhibition at 10 µM [4]: 75%
inhibition at 100 µM [4]: 85%
Ki ([4]; ³H-NECA binding): 26 nM
